Columns and labels:
CK2a = target: T1, CK2a (Homo sapiens, UniProt P68400); assay: Kinase competition binding assay, CK2a; conditions: Table 1 kinase panel
T1 construct: made in house
Protocol: (§1) Cannabis flavonoids and their analogs were subjected to kinase inhibition assay. The compounds were first screened at a single concentration of 10 μM in the primary assay. […]. To determine the kd or IC50 values, competition binding assays were established, authenticated and executed as described previously. Fabian et al., “A Small Molecule-Kinase Interaction Map For Clinical Kinase Inhibitors.”, Nat Biotechnol, 23(3):329-36, Epub (2005). See also, Karaman et al., “A Quantitative Analysis Of Kinase Inhibitor Selectivity”, Nat. Biotechnol. […] For most assays, kinases were fused to T7 phage strains (Fabian, supra) and for the other assays, kinases were produced in HEK-293 cells after which they were tagged with DNA for quantitative PCR detection. In general, full-length constructs were used for small, single domain kinases, and catalytic domain constructs for large multi-domain kinases. The binding assays utilized streptavidin-coated magnetic beads treated with biotinylated small molecule ligands for 30 minutes at room temperature which generated affinity resins for the kinase assays. The liganded beads were blocked with excess biotin and washed with blocking buffer (SeaBlock (Pierce), 1% BSA, 0.05% Tween 20, 1 mM DTT) to remove unbound ligand and to reduce non-specific phage binding. […] Test compounds were prepared as 40× stocks in 100% DMSO and diluted directly into the assay (Final DMSO concentration=2.5%). All reactions were performed in polypropylene 384-well plates in a final volume of 0.04 ml. […] The beads were then re-suspended in elution buffer (1×PBS, 0.05% Tween 20, 0.5 μM non-biotinylated affinity ligand) and incubated at room temperature with shaking for 30 minutes. The kinase concentration in the eluates was measured by quantitative PCR. An illustration of the kinase interaction process is presented below. Kd/IC50 values were determined using a standard dose response curve using the hill equation. Curves were fitted using a non-linear least square fit with the Levenberg-Marquardt algorithm.
(§2) The compound(s) were screened at 10 μM and results for primary screen binding interactions are reported as ‘% Ctrl’, where lower numbers indicate stronger hits in the matrix.

JAK3 = target: T2, JAK3 (Homo sapiens, UniProt P52333); assay: Kinase competition binding assay, JAK3; conditions: Table 1 kinase panel
T2 construct: made in house
T2 sequence (P52333 1-1124): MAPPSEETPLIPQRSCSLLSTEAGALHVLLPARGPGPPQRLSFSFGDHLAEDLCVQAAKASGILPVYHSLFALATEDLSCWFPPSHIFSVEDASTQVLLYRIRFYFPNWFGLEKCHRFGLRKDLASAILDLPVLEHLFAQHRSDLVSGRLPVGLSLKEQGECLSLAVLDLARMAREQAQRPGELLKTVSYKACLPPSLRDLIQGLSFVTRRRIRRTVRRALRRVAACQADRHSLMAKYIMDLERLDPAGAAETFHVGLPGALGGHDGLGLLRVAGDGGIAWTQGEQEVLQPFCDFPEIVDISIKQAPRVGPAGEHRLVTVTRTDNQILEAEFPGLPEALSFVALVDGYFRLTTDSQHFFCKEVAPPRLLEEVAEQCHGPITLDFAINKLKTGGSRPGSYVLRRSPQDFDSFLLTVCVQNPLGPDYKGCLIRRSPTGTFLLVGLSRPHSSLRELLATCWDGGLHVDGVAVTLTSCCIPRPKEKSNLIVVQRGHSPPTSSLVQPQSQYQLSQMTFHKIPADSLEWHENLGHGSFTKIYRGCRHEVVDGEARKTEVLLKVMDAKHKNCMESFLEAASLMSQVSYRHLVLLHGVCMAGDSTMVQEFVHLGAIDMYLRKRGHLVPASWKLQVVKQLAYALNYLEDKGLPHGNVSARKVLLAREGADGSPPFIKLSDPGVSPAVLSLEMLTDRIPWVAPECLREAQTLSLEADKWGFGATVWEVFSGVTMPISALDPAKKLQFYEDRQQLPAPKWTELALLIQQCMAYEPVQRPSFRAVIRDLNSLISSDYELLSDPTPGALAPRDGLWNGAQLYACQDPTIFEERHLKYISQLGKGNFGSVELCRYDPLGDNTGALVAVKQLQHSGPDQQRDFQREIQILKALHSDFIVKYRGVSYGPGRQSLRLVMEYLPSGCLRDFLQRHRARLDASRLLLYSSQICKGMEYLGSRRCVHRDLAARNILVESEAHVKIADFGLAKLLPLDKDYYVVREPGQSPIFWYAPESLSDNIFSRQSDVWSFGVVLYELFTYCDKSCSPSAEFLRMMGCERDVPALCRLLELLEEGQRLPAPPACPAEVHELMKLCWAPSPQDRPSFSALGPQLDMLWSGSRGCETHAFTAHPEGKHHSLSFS
Protocol: as §1, §2

SIRT-5 = target: T3, SIRT-5 (Homo sapiens, UniProt Q9NXA8); assay: Inhibition of sirtuins, SIRT-5; assay type: biochemical; conditions: Table 3 SIRT
T3 sequence (Q9NXA8 37-310): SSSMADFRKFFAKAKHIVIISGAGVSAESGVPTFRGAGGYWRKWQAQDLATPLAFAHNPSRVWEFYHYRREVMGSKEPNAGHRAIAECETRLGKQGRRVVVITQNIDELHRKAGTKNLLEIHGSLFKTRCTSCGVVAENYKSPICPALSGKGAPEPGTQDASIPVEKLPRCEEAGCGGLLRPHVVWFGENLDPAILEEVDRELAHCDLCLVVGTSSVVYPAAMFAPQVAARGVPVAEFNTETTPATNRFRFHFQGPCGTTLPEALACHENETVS
From the text: Inhibition of Sirtuins, Matrix Metalloproteinase, Bromodomains was Also Confirmed Using Standard Protocols and the Results are Present in Table 2.

T1 sequence (P68400 whole entry): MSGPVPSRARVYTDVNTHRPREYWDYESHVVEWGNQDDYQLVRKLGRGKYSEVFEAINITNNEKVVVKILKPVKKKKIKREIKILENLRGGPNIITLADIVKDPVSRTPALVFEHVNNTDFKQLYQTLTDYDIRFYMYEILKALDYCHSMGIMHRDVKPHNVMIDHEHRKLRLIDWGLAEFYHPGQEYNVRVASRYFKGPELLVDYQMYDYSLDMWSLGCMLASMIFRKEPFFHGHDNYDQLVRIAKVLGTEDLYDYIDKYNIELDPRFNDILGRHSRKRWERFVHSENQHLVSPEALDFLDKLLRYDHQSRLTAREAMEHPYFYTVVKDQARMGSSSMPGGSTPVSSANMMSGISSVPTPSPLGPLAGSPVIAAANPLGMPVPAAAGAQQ

Compound | IC50 (CK2a) [nM] | IC50 (JAK3) [nM] | IC50 (SIRT-5) [µM]
COc1cc(-c2cc(=O)c3c(O)c(C/C=C(\C)CCC=C(C)C)c(O)cc3o2)ccc1O [FBL-03A] | 740 | > 20000 | 523
COc1cc(-c2cc(=O)c3c(O)cc(O)c(C/C=C(\C)CCC=C(C)C)c3o2)ccc1O [FBL-03C] | 58 | 780 | 132
COc1ccc(-c2cc(=O)c3c(O)c(C/C=C(\C)CCC=C(C)C)c(O)cc3o2)cc1OC [FBL-03D] | > 30000 | > 30000 | 
COc1cc(-c2cc(=O)c3c(O)c(CC=C(C)C)c(O)cc3o2)ccc1O [FBL-03B] | 768 | > 1000 | 104
COc1cc(-c2cc(=O)c3c(O)cc(O)c(CC=C(C)C)c3o2)ccc1O [FBL-03G] | 38 | > 20000 | 974
